The subject of data set [1] is participants who met criteria for cocaine use disorder. Nature of the data set: Adverse events, inpatient study of oral nepicastat with IV cocaine. The data set is classed as in vivo, human.
Data set [2] has the same test system. Nature of the data set: Cocaine-induced subjective effects. It counts as in vivo, human. Particulars: VAS.
Data set [3] is described as follows: Plasma pharmacokinetics of cocaine after 10 mg IV infusion. Particulars: cocaine 10 mg IV.
Data set [4] concerns participants who met criteria for cocaine use disorder. As to the kind of experiment: Reinforcing effects: choice session, cocaine vs money self-administration. The data set is classed as in vivo, human. Particulars: Day 13; nepicastat 0 or 160 mg; cocaine 0 or 20 mg IV.
Data set [5] concerns rats. As to conditions: ref Schroeder et al., 2013; cited from earlier work.
In data set [6] the test system is DA and NE release in mPFC and NAc. Particulars: rats, microdialysis; ref Devoto et al., 2014; cited from earlier work.
Data set [7] deals with participants who met criteria for cocaine use disorder. As to the kind of experiment: Cocaine-induced cardiovascular effects. It counts as in vivo, human. Particulars: nepicastat 0, 80, 160 mg; cocaine 0, 10, 20, 40 mg IV; n = 13.
[8] abbreviates: Treatment–Cocaine period, nepicastat group n = 14.

Turning to `Cl.NCc1c[nH]c(=S)n1[C@H]1CCc2c(F)cc(F)cc2C1.O` [nepicastat, (S)-5-aminomethyl-1-(5,7-difluoro-1,2,3,4-tetrahydronaphth-2-yl)-1,3-dihydroimidazole-2-thione hydrochloride monohydrate], in data set [1] (setting [8]), the “Incidence of Abnormal dreams” value is 0 (0) number (%) of subjects, the “Incidence of Arthralgia” value is reported as 2 (14) number (%) of subjects, the “Incidence of Back pain” value is reported as 0 (0) number (%) of subjects and the “Incidence of Depressed mood” value was 1 (7) number (%) of subjects. For the same compound, in data set [1] (setting [8]), the “Incidence of Dizziness” value is 0 (0) number (%) of subjects, the “Incidence of Dyspepsia” value is given as 2 (14) number (%) of subjects, the “Incidence of Gastroesophageal reflux disease” value is 3 (21) number (%) of subjects and the “Incidence of Headache” value is 2 (14) number (%) of subjects. Besides, in data set [1] (setting [8]), the “Incidence of Insomnia” value was 4 (29) number (%) of subjects, the “Incidence of Myalgia” value is on record as 0 (0) number (%) of subjects, the “Incidence of Nausea” value is given as 1 (7) number (%) of subjects and the “Incidence of Neck pain” value is recorded as 2 (14) number (%) of subjects. In data set [1] (setting [8]), the “Incidence of Vessel puncture site hematoma” value is 0 (0) number (%) of subjects and the “Incidence of Vessel puncture site pain” value is given as 4 (29) number (%) of subjects. In addition, in data set [1] (oral nepicastat 80 and 160 mg during IV cocaine exposure), the “Safety and tolerability (number, type, severity and duration of AEs vs placebo)” value is “safe and well-tolerated”. In data set [2] (nepicastat 80 and 160 mg oral with IV cocaine), the “Effect on negative subjective effects” value is reported as “did not increase”. Moreover, in data set [2] (nepicastat 80 and 160 mg oral, n = 13), the “Reduction of the positive subjective effects produced by cocaine” value is listed as ~ 25%. Besides, the “Effect on PK parameters of benzoylecgonine or ecgonine methyl ester” value in data set [3] (Day 3 vs Day 11, data not shown) was “None of the PK parameters for benzoylecgonine or ecgonine methyl ester showed statistically significant changes”. The “Effect on kinetics, metabolism or clearance of cocaine or its metabolites” value in data set [3] (oral nepicastat 160 mg) was “did not change”. In addition, in data set [4], the “Main effect on choices for cocaine vs money (ANOVA)” value is “did not reveal a main effect”. Further, the Breakpoint for cocaine result in data set [5] was “significantly lowered”. Besides, the “DA release in the mPFC and NAc” value in data set [6] is reported as “increasing DA release in the mPFC but not in the NAc”. In data set [7], the “Main effect on peak heart rate (ANOVA)” value was “one was detected” and the “Main effect on peak systolic or diastolic blood pressure (ANOVA)” value is recorded as “did not reveal a main effect”.
